# Assays:
# Type in all cases: functional
# [1] = test system: Prevotella salivae; assay: Antimicrobial activity in Prevotella salivae by CLSI agar dilution method; details: Segatella salivae
# [2] = test system: Prevotella melaninogenica; assay: Antimicrobial activity in Prevotella melaninogenica by CLSI agar dilution method
# [3] = test system: Prevotella bivia; assay: Antimicrobial activity in Prevotella bivia by CLSI agar dilution method
# [4] = test system: Clostridium butyricum; assay: Antimicrobial activity in Clostridium butyricum by CLSI agar dilution method
# [5] = test system: Tissierella praeacuta; assay: Antimicrobial activity in Clostridium hastiforme by CLSI agar dilution method
# [6] = test system: Thomasclavelia ramosa; assay: Antimicrobial activity in Clostridium ramosum by CLSI agar dilution method
# [7] = test system: Bacteroides fragilis; assay: Antimicrobial activity in Bacteroides fragilis by CLSI agar dilution method
# [8] = test system: Finegoldia magna; assay: Antimicrobial activity in Finegoldia magna by CLSI agar dilution method
# [9] = test system: Fusobacterium mortiferum; assay: Antimicrobial activity in Fusobacterium mortiferum by CLSI agar dilution method
# [10] = test system: Fusobacterium varium; assay: Antimicrobial activity in Fusobacterium varium by CLSI agar dilution method
# [11] = test system: Bacteroides uniformis; assay: Antimicrobial activity in Bacteroides uniformis by CLSI agar dilution method
# [12] = test system: Clostridium perfringens; assay: Antimicrobial activity in Clostridium perfringens by CLSI agar dilution method
# [13] = test system: Cutibacterium acnes; assay: Antimicrobial activity in Propionibacterium acnes by CLSI agar dilution method
# [14] = test system: Bacteroides stercoris; assay: Antimicrobial activity in Bacteroides stercoris by CLSI agar dilution method
# [15] = test system: Clostridium tertium; assay: Antimicrobial activity in Clostridium tertium by CLSI agar dilution method
# [16] = test system: Prevotella baroniae; assay: Antimicrobial activity in Prevotella baroniae by CLSI agar dilution method; details: Segatella baroniae
# [17] = test system: Porphyromonas asaccharolytica; assay: Antimicrobial activity in Porphyromonas asaccharolytica by CLSI agar dilution method
# [18] = test system: Prevotella veroralis; assay: Antimicrobial activity in Prevotella veroralis by CLSI agar dilution method
# [19] = test system: Bifidobacterium; assay: Antimicrobial activity in Bifidobacterium by CLSI agar dilution method
# [20] = test system: Paeniclostridium sordellii; assay: Antimicrobial activity in Clostridium sordellii by CLSI agar dilution method; details: Paraclostridium sordellii
# [21] = test system: Prevotella corporis; assay: Antimicrobial activity in Prevotella corporis by CLSI agar dilution method
# [22] = test system: Clostridium sp.; assay: Antimicrobial activity in Clostridium sp. by CLSI agar dilution method
# [23] = test system: Prevotella intermedia; assay: Antimicrobial activity in Prevotella intermedia by CLSI agar dilution method
# [24] = test system: Prevotella bergensis; assay: Antimicrobial activity in Prevotella bergensis by CLSI agar dilution method; details: Hallella bergensis
# [25] = test system: Bacteroides ovatus; assay: Antimicrobial activity in Bacteroides ovatus by CLSI agar dilution method
# [26] = test system: Prevotella nigrescens; assay: Antimicrobial activity in Prevotella nigrescens by CLSI agar dilution method
# [27] = test system: Clostridioides difficile; assay: Antimicrobial activity in Clostridium difficile by CLSI agar dilution method
# [28] = test system: Enterocloster clostridioformis; assay: Antimicrobial activity in Clostridium clostridioforme by CLSI agar dilution method
# [29] = test system: Eggerthella lenta; assay: Antimicrobial activity in Eggerthella lenta by CLSI agar dilution method
# [30] = test system: Paraclostridium bifermentans; assay: Antimicrobial activity in Clostridium bifermentans by CLSI agar dilution method
# [31] = test system: Anaerococcus prevotii; assay: Antimicrobial activity in Anaerococcus prevotii by CLSI agar dilution method
# [32] = test system: Parvimonas micra; assay: Antimicrobial activity in Micromonas micros by CLSI agar dilution method
# [33] = test system: Fusobacterium nucleatum; assay: Antimicrobial activity in Fusobacterium nucleatum by CLSI agar dilution method
# [34] = test system: Phocaeicola vulgatus; assay: Antimicrobial activity in Bacteroides vulgatus by CLSI agar dilution method
# [35] = test system: Porphyromonas gingivalis; assay: Antimicrobial activity in Porphyromonas gingivalis by CLSI agar dilution method
# [36] = test system: Prevotella sp.; assay: Antimicrobial activity in Prevotella sp.by CLSI agar dilution method
# [37] = test system: Fusobacterium necrophorum; assay: Antimicrobial activity in Fusobacterium necrophorum by CLSI agar dilution method
# [38] = test system: [Clostridium] innocuum; assay: Antimicrobial activity in Clostridium innocuum by CLSI agar dilution method
# [39] = test system: Peptoniphilus asaccharolyticus; assay: Antimicrobial activity in Peptoniphilus asaccharolyticus by CLSI agar dilution method
# [40] = test system: Anaerococcus tetradius; assay: Antimicrobial activity in Anaerococcus tetradius by CLSI agar dilution method
# [41] = test system: Clostridium cadaveris; assay: Antimicrobial activity in Clostridium cadaveris by CLSI agar dilution method
# [42] = test system: Hoylesella oralis; assay: Antimicrobial activity in Prevotella oralis group by CLSI agar dilution method
# [43] = test system: Actinomyces; assay: Antimicrobial activity in Actinomyces by CLSI agar dilution method
# [44] = test system: Lactobacillus; assay: Antimicrobial activity in Lactobacillus by CLSI agar dilution method
# [45] = test system: Prevotella denticola; assay: Antimicrobial activity in Prevotella denticola by CLSI agar dilution method
# [46] = test system: Prevotella disiens; assay: Antimicrobial activity in Prevotella disiens by CLSI agar dilution method
# [47] = test system: Prevotella buccae; assay: Antimicrobial activity in Prevotella buccae by CLSI agar dilution method; details: Segatella buccae
# [48] = test system: Peptostreptococcus anaerobius; assay: Antimicrobial activity in Peptostreptococcus anaerobius by CLSI agar dilution method
# [49] = test system: Hoylesella loescheii; assay: Antimicrobial activity in Prevotella loescheii by CLSI agar dilution method
# [50] = test system: Parabacteroides distasonis; assay: Antimicrobial activity in Bacteroides distasonis by CLSI agar dilution method
# [51] = test system: Bacteroides thetaiotaomicron; assay: Antimicrobial activity in Bacteroides thetaiotaomicron by CLSI agar dilution method
smiles,measurement,setting,value
C[C@@H](O)[C@H]1C(=O)N2C(C(=O)O)=C(SCCNC=N)C[C@H]12 [IMIPENEM ANHYDROUS],MIC,[1],0.03 µg/mL
same,MIC50,[2],0.03 µg/mL
same,MIC90,[2],0.125 µg/mL
same,MIC,[3],0.03 µg/mL
same,MIC50,[3],0.03 µg/mL
same,MIC90,[3],0.25 µg/mL
same,MIC,[4],0.5 µg/mL
same,MIC,[5],2 µg/mL
same,MIC,[6],0.25 µg/mL
same,MIC50,[7],0.125 µg/mL
same,MIC90,[7],0.25 µg/mL
same,MIC,[8],0.06 µg/mL
same,MIC50,[8],0.06 µg/mL
same,MIC90,[8],0.125 µg/mL
same,MIC50,[9],0.5 µg/mL
same,MIC90,[9],1 µg/mL
same,MIC,[10],0.5 µg/mL
same,MIC50,[10],0.5 µg/mL
same,MIC90,[10],1 µg/mL
same,MIC,[11],0.25 µg/mL
same,MIC50,[11],0.25 µg/mL
same,MIC50,[12],0.125 µg/mL
same,MIC90,[12],0.125 µg/mL
same,MIC50,[13],0.03 µg/mL
same,MIC90,[13],0.03 µg/mL
same,MIC,[14],0.25 µg/mL
same,MIC50,[14],0.25 µg/mL
same,MIC,[15],0.25 µg/mL
same,MIC50,[15],0.25 µg/mL
same,MIC,[16],0.03 µg/mL
same,MIC,[17],≤ 0.016 µg/mL
same,MIC,[18],0.03 µg/mL
same,MIC,[19],0.03 µg/mL
same,MIC50,[19],0.03 µg/mL
same,MIC90,[19],0.125 µg/mL
same,MIC,[20],0.06 µg/mL
same,MIC,[21],≤ 0.016 µg/mL
same,MIC50,[21],≤ 0.016 µg/mL
same,MIC50,[22],1 µg/mL
same,MIC90,[22],1 µg/mL
same,MIC,[23],≤ 0.016 µg/mL
same,MIC50,[23],≤ 0.016 µg/mL
same,MIC90,[23],0.06 µg/mL
same,MIC,[24],0.06 µg/mL
same,MIC,[25],0.125 µg/mL
same,MIC50,[25],0.125 µg/mL
same,MIC90,[25],0.25 µg/mL
same,MIC,[26],≤ 0.016 µg/mL
same,MIC50,[26],≤ 0.016 µg/mL
same,MIC90,[26],0.06 µg/mL
same,MIC50,[27],4 µg/mL
same,MIC90,[27],4 µg/mL
same,MIC,[28],1 µg/mL
same,MIC50,[29],0.5 µg/mL
same,MIC90,[29],0.5 µg/mL
same,MIC,[30],0.25 µg/mL
same,MIC,[31],≤ 0.016 µg/mL
same,MIC,[32],0.03 µg/mL
same,MIC50,[32],0.03 µg/mL
same,MIC90,[32],0.06 µg/mL
same,MIC50,[33],0.03 µg/mL
same,MIC90,[33],0.06 µg/mL
same,MIC50,[34],0.5 µg/mL
same,MIC90,[34],0.5 µg/mL
same,MIC,[35],≤ 0.016 µg/mL
same,MIC,[36],0.03 µg/mL
same,MIC,[37],≤ 0.016 µg/mL
same,MIC50,[37],≤ 0.016 µg/mL
same,MIC,[38],0.125 µg/mL
same,MIC,[39],≤ 0.016 µg/mL
same,MIC50,[39],≤ 0.016 µg/mL
same,MIC50,[40],0.03 µg/mL
same,MIC90,[40],0.06 µg/mL
same,MIC,[41],0.125 µg/mL
same,MIC,[42],≤ 0.016 µg/mL
same,MIC,[43],0.06 µg/mL
same,MIC50,[43],0.125 µg/mL
same,MIC50,[44],1 µg/mL
same,MIC90,[44],2 µg/mL
same,MIC50,[45],0.03 µg/mL
same,MIC90,[45],0.125 µg/mL
same,MIC,[46],0.03 µg/mL
same,MIC50,[46],0.06 µg/mL
same,MIC,[47],0.03 µg/mL
same,MIC50,[47],0.03 µg/mL
same,MIC90,[47],0.125 µg/mL
same,MIC,[48],0.06 µg/mL
same,MIC50,[48],0.06 µg/mL
same,MIC90,[48],1 µg/mL
same,MIC,[49],0.03 µg/mL
same,MIC50,[50],0.5 µg/mL
same,MIC90,[50],1 µg/mL
same,MIC,[51],0.25 µg/mL
same,MIC50,[51],0.25 µg/mL
same,MIC90,[51],0.25 µg/mL

# — ChEMBL document CHEMBL1649156, “Antianaerobic activity of sulopenem compared to six other agents” (2009)
